According to patent US10696707B2, “Polyene macrolide derivative” (Shionogi & Co., Ltd., priority 2014, dated 2020):
In brackets after ≈: the same amount, converted by molar mass. Read-outs that look alike come from different tables or passages of the source.

Key:
Type in all cases: cell-based
C. albicans ATCC90028 = assay: Antifungal activity test, MIC by broth microdilution (CLSI M27-A3); settings: C. albicans ATCC90028, 35° C., 24-48 hours
Description: (§1) The Minimum Inhibitory Concentration (MIC) values of the present compound against yeast and filamentous fungi were determined by broth microdilution assay according to the Clinical Laboratory Standards Institute (CLSI) guidelines outlined in documents M27-A3 and M38-A2. The medium used in the assay consisted of RPMI1640 (with glutamine, without bicarbonate) with 2% glucose and 0.165 mol/L morpholinepropanesulfonic acid (MOPS) with pH adjusted to 7.0 using 1 mol/L sodium hydroxide. The present compound was dissolved in dimethyl sulfoxide (DMSO). A series of two-fold dilutions were prepared in DMSO, and then 2 μL of the diluted compound was added to each well in 96-well sterile plates. Each inoculum was prepared by diluting a suspension of Candida spp. or a conidia suspension of Aspergillus spp. suspended in sterile saline solution, and then 200 μL was added to each well to a predetermined concentration using RPMI/MOPS (final concentration for each solution: approximately 1×10^3 cells/mL and approximately 1×10^4 CFU/mL). Plates of Candida spp. and Aspergillus spp. were incubated at 35° C. for 24-48 hours. The MIC was defined as the lowest concentration giving 100% inhibition compared to the growth control.

A. flavus ATCC204304 = assay: Antifungal activity test, MIC by broth microdilution (CLSI M38-A2); settings: A. flavus ATCC204304, 35° C., 24-48 hours
Description: as §1

A. fumigatus ATCC204305 = assay: as above; settings: A. fumigatus ATCC204305, 35° C., 24-48 hours
Description: as §1

[1] = system: red blood cells (5% RBC suspension); assay: Test Example 2-1: in vitro hemolytic activity test (upper limit 50, 80, 100 or 200 μmol/L); settings: Erythrocyte, 1 h; hemolysis method 80 (upper concentration 80 μmol/L); 5% RBC suspension, 37° C., one hour; read-out: hemolysis IC50
In short: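 A 5% suspension of washed red cells in Earle's medium was exposed to doubling dilutions of compound from DMSO, with maxima of 50, 80, 100 or 200 μmol/L final, for 1 h at 37 °C, 5% CO2. Supernatant absorbance at 540 nm was normalised to water-lysed cells. IC50 is the concentration giving 50% hemolysis; ">" values exceed the top concentration.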

[2] = Candida albicans, broth microdilution, 100% inhibition, read-out: MIC
[3] = Aspergillus flavus, broth microdilution, 100% inhibition, read-out: MIC
[4] = Aspergillus fumigatus, broth microdilution, 100% inhibition, read-out: MIC
[5] = broth microdilution, 100% inhibition
[6] = lowest concentration giving 100% inhibition

| SMILES | MIC (C. albicans ATCC90028; [6]) [µg/mL] | MIC (A. flavus ATCC204304; [6]) [µg/mL] | MIC (A. fumigatus ATCC204305; [6]) [µg/mL] | other results |
| --- | --- | --- | --- | --- |
| C[C@@H]1[C@H](O)[C@@H](C)/C=C/C=C/C=C/C=C/C=C/C=C/C=C/[C@H](O[C@@H]2O[C@H](C)[C@@H](O)[C@H](N)[C@@H]2O)C[C@@H]2O[C@](O)(C[C@@H](O)C[C@@H](O)[C@H](O)CC[C@@H](O)C[C@@H](O)CC(=O)O[C@H]1C)C[C@H](O)[C@H]2NC(=O)NC(CO)CO [I-40] | – | – | – | MIC (C. albicans ATCC90028; [2]): 0.125 µg/mL (≈ 0.123 µM); MIC (A. flavus ATCC204304; [3]): 0.5 µg/mL (≈ 0.494 µM); MIC (A. fumigatus ATCC204305; [4]): 0.25 µg/mL (≈ 0.247 µM); IC50 [1]: > 80 µM |
| C[C@@H]1[C@H](O)[C@@H](C)/C=C/C=C/C=C/C=C/C=C/C=C/C=C/[C@H](O[C@@H]2O[C@H](C)[C@@H](O)[C@H](N)[C@@H]2O)C[C@@H]2O[C@](O)(C[C@@H](O)C[C@@H](O)[C@H](O)CC[C@@H](O)C[C@@H](O)CC(=O)O[C@H]1C)C[C@H](O)[C@H]2NC(=O)N(O)CCO [I-274] | – | – | – | MIC (C. albicans ATCC90028; [5]): 0.5 µg/mL (≈ 0.501 µM); MIC (A. flavus ATCC204304; [5]): 0.5 µg/mL (≈ 0.501 µM); MIC (A. fumigatus ATCC204305; [5]): 0.5 µg/mL (≈ 0.501 µM) |
| C[C@@H]1[C@H](O)[C@@H](C)/C=C/C=C/C=C/C=C/C=C/C=C/C=C/[C@H](O[C@@H]2O[C@H](C)[C@@H](O)[C@H](N)[C@@H]2O)C[C@@H]2O[C@](O)(C[C@@H](O)C[C@@H](O)[C@H](O)CC[C@@H](O)C[C@@H](O)CC(=O)O[C@H]1C)C[C@H](O)[C@H]2NC(=O)N(O)C[C@H](O)CO [I-275] | – | – | – | MIC (C. albicans ATCC90028; [5]): 0.5 µg/mL (≈ 0.486 µM); MIC (A. flavus ATCC204304; [5]): 1 µg/mL (≈ 0.973 µM); MIC (A. fumigatus ATCC204305; [5]): 0.5 µg/mL (≈ 0.486 µM) |
| C[C@@H]1[C@H](O)[C@@H](C)/C=C/C=C/C=C/C=C/C=C/C=C/C=C/[C@H](O[C@@H]2O[C@H](C)[C@@H](O)[C@H](N)[C@@H]2O)C[C@@H]2O[C@](O)(C[C@@H](O)C[C@@H](O)[C@H](O)CC[C@@H](O)C[C@@H](O)CC(=O)O[C@H]1C)C[C@H](O)[C@H]2NC(=O)N(O)CC(=O)O [I-276] | – | – | – | MIC (C. albicans ATCC90028; [5]): 0.5 µg/mL (≈ 0.494 µM); MIC (A. flavus ATCC204304; [5]): 0.5 µg/mL (≈ 0.494 µM); MIC (A. fumigatus ATCC204305; [5]): 0.5 µg/mL (≈ 0.494 µM) |
| C[C@@H]1[C@H](O)[C@@H](C)/C=C/C=C/C=C/C=C/C=C/C=C/C=C/[C@H](O[C@@H]2O[C@H](C)[C@@H](O)[C@H](N)[C@@H]2O)C[C@@H]2O[C@](O)(C[C@@H](O)C[C@@H](O)[C@H](O)CC[C@@H](O)C[C@@H](O)CC(=O)O[C@H]1C)C[C@H](O)[C@H]2NC(=O)NOCC(=O)O [I-278] | – | – | – | MIC (C. albicans ATCC90028; [2]): 0.5 µg/mL (≈ 0.494 µM); MIC (A. flavus ATCC204304; [3]): 0.5 µg/mL (≈ 0.494 µM); MIC (A. fumigatus ATCC204305; [4]): 0.5 µg/mL (≈ 0.494 µM) |
| C[C@@H]1[C@H](O)[C@@H](C)/C=C/C=C/C=C/C=C/C=C/C=C/C=C/[C@H](O[C@@H]2O[C@H](C)[C@@H](O)[C@H](N)[C@@H]2O)C[C@@H]2O[C@](O)(C[C@@H](O)C[C@@H](O)[C@H](O)CC[C@@H](O)C[C@@H](O)CC(=O)O[C@H]1C)C[C@H](O)[C@H]2NC(=O)N1C[C@@](O)(C(=O)O)[C@@](O)(C(=O)O)C1 [I-298] | – | – | – | MIC (C. albicans ATCC90028; [2]): 0.5 µg/mL (≈ 0.45 µM); MIC (A. flavus ATCC204304; [3]): 1 µg/mL (≈ 0.899 µM); MIC (A. fumigatus ATCC204305; [4]): 0.5 µg/mL (≈ 0.45 µM) |
| C[C@@H]1[C@H](O)[C@@H](C)/C=C/C=C/C=C/C=C/C=C/C=C/C=C/[C@H](O[C@@H]2O[C@H](C)[C@@H](O)[C@H](NC(=O)CN(C)C)[C@@H]2O)C[C@@H]2O[C@](O)(C[C@@H](O)C[C@@H](O)[C@H](O)CC[C@@H](O)C[C@@H](O)CC(=O)O[C@H]1C)C[C@H](O)[C@H]2NC(=O)NNC(N)=O [I-326] | 0.25 (≈ 0.231 µM) | 1 (≈ 0.925 µM) | 1 (≈ 0.925 µM) | – |
| C[C@@H]1[C@H](O)[C@@H](C)/C=C/C=C/C=C/C=C/C=C/C=C/C=C/[C@H](O[C@@H]2O[C@H](C)[C@@H](O)[C@H](NC(=N)N)[C@@H]2O)C[C@@H]2O[C@](O)(C[C@@H](O)C[C@@H](O)[C@H](O)CC[C@@H](O)C[C@@H](O)CC(=O)O[C@H]1C)C[C@H](O)[C@H]2NC(=O)NNC(N)=O [I-330] | 0.25 (≈ 0.241 µM) | 1 (≈ 0.963 µM) | 1 (≈ 0.963 µM) | – |
| C[C@@H]1[C@H](O)[C@@H](C)/C=C/C=C/C=C/C=C/C=C/C=C/C=C/[C@H](O[C@@H]2O[C@H](C)[C@@H](O)[C@H](NC(=O)CN(C)C)[C@@H]2O)C[C@@H]2O[C@](O)(C[C@@H](O)C[C@@H](O)[C@H](O)CC[C@@H](O)C[C@@H](O)CC(=O)O[C@H]1C)C[C@H](O)[C@H]2NC(=O)NCCC(N)=O [I-344] | 0.5 (≈ 0.457 µM) | 0.5 (≈ 0.457 µM) | 1 (≈ 0.914 µM) | – |
| C[C@@H]1[C@H](O)[C@@H](C)/C=C/C=C/C=C/C=C/C=C/C=C/C=C/[C@H](O[C@@H]2O[C@H](C)[C@@H](O)[C@H](NC(=N)N)[C@@H]2O)C[C@@H]2O[C@](O)(C[C@@H](O)C[C@@H](O)[C@H](O)CC[C@@H](O)C[C@@H](O)CC(=O)O[C@H]1C)C[C@H](O)[C@H]2NC(=O)NCC(N)=O [I-346] | 0.5 (≈ 0.482 µM) | 0.5 (≈ 0.482 µM) | 1 (≈ 0.964 µM) | – |
| C[C@@H]1[C@H](O)[C@@H](C)/C=C/C=C/C=C/C=C/C=C/C=C/C=C/[C@H](O[C@@H]2O[C@H](C)[C@@H](O)[C@H](NC(=N)N)[C@@H]2O)C[C@@H]2O[C@](O)(C[C@@H](O)C[C@@H](O)[C@H](O)CC[C@@H](O)C[C@@H](O)CC(=O)O[C@H]1C)C[C@H](O)[C@H]2NC(=O)NNC(=O)[C@H](O)CO [I-367] | – | – | – | MIC (C. albicans ATCC90028; Candida albicans, lowest concentration giving 100% inhibition, read-out: MIC): 0.25 µg/mL (≈ 0.231 µM); MIC (A. flavus ATCC204304; Aspergillus flavus, lowest concentration giving 100% inhibition, read-out: MIC): 0.5 µg/mL (≈ 0.462 µM); MIC (A. fumigatus ATCC204305; Aspergillus fumigatus, lowest concentration giving 100% inhibition, read-out: MIC): 1 µg/mL (≈ 0.923 µM) |
| CNC(=O)N[C@H]1[C@@H]2C[C@@H](O[C@@H]3O[C@H](C)[C@@H](O)[C@H](N(CCCN)CCCN)[C@@H]3O)/C=C/C=C/C=C/C=C/C=C/C=C/C=C/[C@H](C)[C@@H](O)[C@@H](C)[C@H](C)OC(=O)C[C@H](O)C[C@H](O)CC[C@@H](O)[C@H](O)C[C@H](O)C[C@](O)(C[C@@H]1O)O2 [I-383] | 0.25 (≈ 0.234 µM) | 1 (≈ 0.938 µM) | 1 (≈ 0.938 µM) | – |

The next lines start with results.

| MIC (C. albicans ATCC90028; [6]) [µg/mL] | MIC (A. flavus ATCC204304; [6]) [µg/mL] | MIC (A. fumigatus ATCC204305; [6]) [µg/mL] | SMILES | other results |
| --- | --- | --- | --- | --- |
| 0.25 (≈ 0.244 µM) | 0.5 (≈ 0.489 µM) | 1 (≈ 0.977 µM) | C[C@@H]1[C@H](O)[C@@H](C)/C=C/C=C/C=C/C=C/C=C/C=C/C=C/[C@H](O[C@@H]2O[C@H](C)[C@@H](O)[C@H](NC(=O)CN(C)C)[C@@H]2O)C[C@@H]2O[C@](O)(C[C@@H](O)C[C@@H](O)[C@H](O)CC[C@@H](O)C[C@@H](O)CC(=O)O[C@H]1C)C[C@H](O)[C@H]2NC(N)=O [I-325] | – |
| 0.25 (≈ 0.247 µM) | 1 (≈ 0.99 µM) | 1 (≈ 0.99 µM) | CONC(=O)N[C@H]1[C@@H]2C[C@@H](O[C@@H]3O[C@H](C)[C@@H](O)[C@H](NC(=N)N)[C@@H]3O)/C=C/C=C/C=C/C=C/C=C/C=C/C=C/[C@H](C)[C@@H](O)[C@@H](C)[C@H](C)OC(=O)C[C@H](O)C[C@H](O)CC[C@@H](O)[C@H](O)C[C@H](O)C[C@](O)(C[C@@H]1O)O2 [I-331] | – |
| 0.25 (≈ 0.238 µM) | 0.5 (≈ 0.476 µM) | 1 (≈ 0.951 µM) | C[C@@H]1[C@H](O)[C@@H](C)/C=C/C=C/C=C/C=C/C=C/C=C/C=C/[C@H](O[C@@H]2O[C@H](C)[C@@H](O)[C@H](NC(=N)N)[C@@H]2O)C[C@@H]2O[C@](O)(C[C@@H](O)C[C@@H](O)[C@H](O)CC[C@@H](O)C[C@@H](O)CC(=O)O[C@H]1C)C[C@H](O)[C@H]2NC(=O)NCCC(N)=O [I-343] | – |
| 0.5 (≈ 0.455 µM) | 0.5 (≈ 0.455 µM) | 1 (≈ 0.91 µM) | C[C@@H]1[C@H](O)[C@@H](C)/C=C/C=C/C=C/C=C/C=C/C=C/C=C/[C@H](O[C@@H]2O[C@H](C)[C@@H](O)[C@H](NC(=N)NO)[C@@H]2O)C[C@@H]2O[C@](O)(C[C@@H](O)C[C@@H](O)[C@H](O)CC[C@@H](O)C[C@@H](O)CC(=O)O[C@H]1C)C[C@H](O)[C@H]2NC(=O)NNC(=O)[C@H](O)CO [I-380] | – |
